From US11630102B2, “Composition and method for modulating fibroblast growth factor receptor 3 activation” (ACADEMIA SINICA, priority 2017, dated 2023)
Entries after “also recorded” stand apart in the source; their conditions may differ. Where two headings read alike, the source gives them in different places.

Columns and labels:
TDI FGFR3 [1] = target: T1, TDI FGFR3 (Homo sapiens, UniProt P22607, Y373C); assay: cell-based translocation assay (ring spot count, high-content imaging); settings: for inhibition of FGFR3 activation (in words): cells stably expressing SH2(SH2B)-RrGFP and TDI FGFR3
T1 sequence (P22607 23-806 Y373C): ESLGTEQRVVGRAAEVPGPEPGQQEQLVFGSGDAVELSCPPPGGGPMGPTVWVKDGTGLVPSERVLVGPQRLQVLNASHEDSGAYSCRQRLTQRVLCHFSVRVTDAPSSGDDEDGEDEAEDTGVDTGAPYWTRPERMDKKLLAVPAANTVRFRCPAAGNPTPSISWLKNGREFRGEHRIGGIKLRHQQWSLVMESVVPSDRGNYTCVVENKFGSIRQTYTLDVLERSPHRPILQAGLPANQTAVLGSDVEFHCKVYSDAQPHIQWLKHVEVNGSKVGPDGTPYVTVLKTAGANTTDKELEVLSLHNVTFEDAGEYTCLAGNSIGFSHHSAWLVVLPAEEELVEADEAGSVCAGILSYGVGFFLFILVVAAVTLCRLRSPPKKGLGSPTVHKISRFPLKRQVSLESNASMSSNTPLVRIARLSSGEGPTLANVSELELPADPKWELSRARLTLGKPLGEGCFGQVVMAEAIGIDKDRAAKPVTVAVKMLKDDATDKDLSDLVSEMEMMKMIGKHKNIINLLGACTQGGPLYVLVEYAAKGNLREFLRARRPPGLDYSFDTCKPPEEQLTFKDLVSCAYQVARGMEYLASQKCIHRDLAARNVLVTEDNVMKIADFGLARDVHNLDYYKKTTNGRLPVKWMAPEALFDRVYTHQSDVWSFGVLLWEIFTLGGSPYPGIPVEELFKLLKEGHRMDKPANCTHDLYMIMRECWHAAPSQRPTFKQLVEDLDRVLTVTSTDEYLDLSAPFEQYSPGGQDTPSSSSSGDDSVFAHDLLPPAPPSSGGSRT
Description: (§2) PKC412 was prepared as a 6% (w/w) stock in DMSO. Live-cell imaging was performed at 37° C. under humidified conditions in a 5% CO2 incubator.
(§3) For high-content screening, all steps of sample-plate preparation, including compound treatment, fixation and plate washing, were fully automated and were performed using a Bio-Tek EL405uv system (Bio-Tek Instruments, Inc., Winooski, Vt., USA). U2OS cells stably expressing TDI FGFR3 and SI-12-RrGFP were seeded at a density of 4×10^3 cells/well in black 96-well Packard Viewplates, incubated overnight in complete medium at 37° C. in a CO2 incubator, and then transferred to 100 μl serum-free medium containing PKC412 or plant extract. The final DMSO concentration was 1%. After incubating for 1 hour at 37° C. in a CO2 incubator, cells were fixed with 4.5% formaldehyde and cell nuclei were labeled with a 2 μg/ml Hoechst stain solution (Sigma-Aldrich).
(§4) Cell images were automatically obtained using an ArrayScan VTI HCS Reader (Cellomics, Pittsburgh, Pa., USA). Filter sets appropriate for detecting the two fluorophores were used, and a 20×0.4 numerical aperture microscope objective was used for imaging. The Compartmental Analysis BioApplication (Cellomics) was used to analyze the images after optimization of the application's protocol settings. For these analyses, the Compartmental Analysis used the Hoechst-labeled nuclei to identify individual cells, and the nucleus (Circle) and cytoplasmic area (Ring) of the cells were defined by parameter settings in the software. The GFP spots in the Ring region were defined and the spot numbers (Ring Spot Count) and spot intensity (Ring Spot Intensity) were quantified by the software.

TDI FGFR3 [2] = target: T1, TDI FGFR3
Description: as §2, §3, §4

[3] = solubility of Pa derivatives compared to Pa; assay type: physicochemical
KMS-11 cells = assay: KMS-11 cell proliferation assay (WST-1); assay type: cell-based, human; settings: FGFR3-dependent growth (Y373C FGFR3)
Description: Cell proliferation was determined by a colorimetric assay of cell viability based on the cleavage of the tetrazolium salt WST-1 (Roche) by mitochondrial dehydrogenases. Cells were grown in serum-free conditions for 24 h and then were seeded in 96-well plates at a density of 50,000 cells/well in RPMI. Cells were incubated with 1 nM aFGF and 50 μg/ml heparin and various doses of plant extracts in 200 μl RPMI at a final concentration of 1% DMSO. Plates were incubated for 72 h at 37° C., 5% CO2. The WST-1 assay was performed according to the manufacturer's instructions. The absorbance of the formazan dye formed, which correlates with the number of metabolically active cells in the culture, was measured at 450 nm and 690 nm 1 h after adding the reagent. Each experimental condition was performed in triplicate.
The effects of hit 4, hit 4-1, and hit 4-2 were examined on the growth of human myeloma cell line KMS-11 […] expressing TDI FGFR3. KMS-11 cells were stimulated with aFGF/heparin and incubated with DMSO negative control, PKC412 positive control, or 10 μg/ml and 100 μg/ml doses of each tested plant extract. Cell growth was measured as described above.
Fractions were analyzed for their ability to inhibit the FGFR3 activity-dependent growth of human myeloma cell line KMS-11 as described above in Example 3.

FGFR3^ACH/ACH mice = assay: treatment of achondroplasia mice; assay type: in vivo; settings: 0.09 mg/g/mouse for 7 weeks from 7 days of age
Description: Femurs of mice were dissected and the flesh was removed. The lengths of the femurs were measured using a millimetre-scale calliper ruler.
(§1) FGFR3^ACH/ACH mice beginning at 7 days of age were treated once-daily with 0.2 mg/g/mouse plant active fractions F4 and F4-IS11 by gavage in 200 μl PBS for 4 or 7 weeks. Control wild type littermates (WT) and FGFR3^ACH/ACH mice were treated with vehicle control. In additional studies, mice were treated with 0.09 mg/g/mouse purified Pa or vehicle control in a similar manner. Body weight and body length were measured weekly.
Skeletons were analyzed by […] (Skyscan 1076 system, Bruker, Brussels, Belgium) as described above.

WT mice = assay: treatment of wild-type mice with Pa; assay type: in vivo; settings: 0.09 mg/g/mouse for 7 weeks from 7 days of age
Description: as §1
As mentioned above, Pa was identified as an active compound in the A. viridis extract by means of the method set forth above in Example 4. WT and FGFR3^ACH mice at 7 days of age were treated with vehicle (DMSO) or with 0.09 mg/g/mouse Pa for 7 weeks. The body weight of treated mice was measured weekly.

NCC(=O)CCC(=O)O [5-aminolevulinic acid, reference compound]
inhibition of FGFR3 activation (in words) (TDI FGFR3 [1]): did not

CO[C@@H]1[C@H](N(C)C(=O)c2ccccc2)C[C@H]2O[C@]1(C)n1c3ccccc3c3c4c(c5c6ccccc6n2c5c31)C(=O)NC4 [PKC412, reference compound]
time to disappearance of punctate GFP signals after treatment (TDI FGFR3 [1]; SH2(SH2B)-RrGFP and TDI FGFR3 expressing cells, not seen with DMSO): ≤ 1 h

Oc1cccc(-c2c3nc(c(-c4cccc(O)c4)c4ccc([nH]4)c(-c4cccc(O)c4)c4nc(c(-c5cccc(O)c5)c5ccc2[nH]5)CC4)C=C3)c1 [temoporfin]
inhibition of FGFR3 activation (in words) (TDI FGFR3 [2]): had FGFR3 inhibition activity

HCl-N-pheophorbide a [HCl-N-Pa]
solubility as compared to Pa [3]: enhanced solubility | inhibition of FGFR3 activation (in words) (TDI FGFR3 [1]): comparable FGFR3 inhibition activities

Na-pheophorbide a [NA-Pa]
solubility as compared to Pa [3]: enhanced solubility | inhibition of FGFR3 activation (in words) (TDI FGFR3 [1]): comparable FGFR3 inhibition activities

Pyropheophorbide a [PyroPa]
inhibition of FGFR3 activation (in words) (TDI FGFR3 [1]): inhibit FGFR3 activation; also recorded: stronger than any of the tested photosensitizers

chlorophyllin A [reference compound]
inhibition of FGFR3 activation (in words) (TDI FGFR3 [1]): had FGFR3 inhibition activity

pheophorbide a [Pa]
inhibition of KMS-11 cell proliferation (KMS-11 cells): inhibited FGFR3-dependent cell proliferation | body weight vs DMSO-treated mice (FGFR3^ACH/ACH mice): increased body weight | body weight vs DMSO-treated mice (WT mice): increased body weight | inhibition of FGFR3 activation (in words) (TDI FGFR3 [1]): inhibit FGFR3 activation

pyropheophorbide-a methyl ester [reference compound]
inhibition of FGFR3 activation (in words) (TDI FGFR3 [1]): had FGFR3 inhibition activity
